In patent US9149038B2, “4-amino-6-(heterocyclic)picolinates and 6-amino-2-(heterocyclic)pyrimidine-4-carboxylates and their use as herbicides” (Dow AgroSciences LLC, priority 2013, dated 2015):
Read-outs that look alike come from different tables or passages of the source.

Tested on: Wheat and Barley and weed species
Assay: Post-Emergent Test III: postemergent herbicidal activity in wheat and barley, visual rating after 21 d and probit GR20/GR50/GR80/GR90 (Tables 9-13)
Assay type: in vivo
Settings: for GR50 ALOMY / GR50 APESV / GR50 KCHSC / GR50 LOLSS / GR50 SETVI: growth reduction of 50%; for GR50 ALOMY / GR80 ALOMY / GR90 ALOMY / GR50 APESV / GR80 APESV / GR90 APESV / GR20 HORVS / GR50 KCHSC / GR80 KCHSC / GR90 KCHSC / GR50 LOLSS / GR80 LOLSS / GR90 LOLSS / GR50 SETVI / GR80 SETVI / GR90 SETVI / GR20 TRZAS: probit analysis; for GR80 ALOMY / GR80 APESV / GR80 KCHSC / GR80 LOLSS / GR80 SETVI: growth reduction of 80%; for GR90 ALOMY / GR90 APESV / GR90 KCHSC / GR90 LOLSS / GR90 SETVI: growth reduction of 90%; for GR20 HORVS / GR20 TRZAS: growth reduction of 20%; for pest or weed control at 35 g/ha / pest or weed control at 70 g/ha / pest or weed control at 140 g/ha: post-emergence, 504 h; for Visual Growth Reduction (%) 21 Days After Application KCHSC / GR50 KCHSC / GR80 KCHSC / GR90 KCHSC: KCHSC kochia (Kochia scoparia)
Source text: Herbicidal evaluations were made visually on a scale of 0 to 100 where 0 represents no activity and 100 represents complete plant death.
Seeds of the desired test plant species were planted in Sun Gro MetroMix® 306 planting mixture, which typically has a pH of 6.0 to 6.8 and an organic matter content of about 30 percent, in plastic pots with a surface area of 103.2 square centimeters (cm^2). When required to ensure good germination and healthy plants, a fungicide treatment and/or other chemical or physical treatment was applied. The plants were grown for 7-36 days (d) in a greenhouse with an approximate 14 hour (h) photoperiod which was maintained at about 18° C. during the day and 17° C. during the night. Nutrients and water were added on a regular basis and supplemental lighting was provided with overhead metal halide 1000-Watt lamps as necessary. The plants were employed for testing when they reached the second or third true leaf stage.
A weighed amount, determined by the highest rate to be tested, of each test compound was placed in a 25 mL glass vial and was dissolved in 4 mL of a 97:3 v/v mixture of acetone and DMSO to obtain concentrated stock solutions. […] The concentrated stock solutions obtained were diluted with 20 mL of an aqueous mixture containing acetone, water, isopropyl alcohol, DMSO, Agri-Dex crop oil concentrate, and X-77 surfactant in a 48:39:10:1.5:1.5:0.02 v/v ratio to obtain spray solutions containing the highest application rates. Additional application rates were obtained by serial dilution of 12 mL of the high rate solution into a solution containing 2 mL of a 97:3 v/v mixture of acetone and DMSO and 10 mL of an aqueous mixture containing acetone, water, isopropyl alcohol, DMSO, Agri-Dex crop oil concentrate, and X-77 surfactant in a 48:39:10:1.5:1.5:0.02 v/v ratio to obtain ½×, ¼×, ⅛× and 1/16× rates of the high rate. Compound requirements are based upon a 12 mL application volume at a rate of 187 liters per hectare (L/ha). Formulated compounds were applied to the plant material with an overhead Mandel track sprayer equipped with 8002E nozzles calibrated to deliver 187 L/ha over an application area of 0.503 square meters at a spray height of 18 inches (43 cm) above the average plant canopy height. Control plants were sprayed in the same manner with the solvent blank.
The treated plants and control plants were placed in a greenhouse as described above and watered by subirrigation to prevent wash-off of the test compounds. After 21 d, the condition of the test plants as compared with that of the untreated plants was determined visually and scored on a scale of 0 to 100 percent where 0 corresponds to no injury and 100 corresponds to complete kill and are presented as indicated in Table 4.
By applying the well-accepted probit analysis as described by J. Berkson in Journal of the American Statistical Society, 48, 565 (1953) and by D. Finney in “Probit Analysis” Cambridge University Press (1952), herbicidal injury of a specific compound at various rates can be used to calculate GR20, GR50, GR80 and GR90 values, which are defined as growth reduction factors that correspond to the effective dose of herbicide required to provide plant growth reduction (GR) of 20 percent, 50 percent, 80 percent and 90 percent, respectively. Probit analysis was applied to data collected from multiple dose rates of individual compounds utilizing the procedures explained in the following examples. The data for some of the dose rates and analysis of all of the dose rates are captured in the following tables.

[1] = ALOMY black-grass (Alopecurus myosuroides)
[2] = APESV bentgrass (Apera spica-venti)
[3] = Hordeum vulgare, HORVS barley, spring (crop), 35 g ai/ha, read-out: Visual Growth Reduction (%) 21 Days After Application HORVS
[4] = Hordeum vulgare, HORVS barley, spring (crop), 70 g ai/ha, read-out: Visual Growth Reduction (%) 21 Days After Application HORVS
[5] = Hordeum vulgare, HORVS barley, spring (crop), 140 g ai/ha, read-out: Visual Growth Reduction (%) 21 Days After Application HORVS
[6] = SETVI green foxtail (Setaria viridis)
[7] = Triticum aestivum, TRZAS wheat, spring (crop), 35 g ai/ha, read-out: Visual Growth Reduction (%) 21 Days After Application TRZAS
[8] = Triticum aestivum, TRZAS wheat, spring (crop), 70 g ai/ha, read-out: Visual Growth Reduction (%) 21 Days After Application TRZAS
[9] = Triticum aestivum, TRZAS wheat, spring (crop), 140 g ai/ha, read-out: Visual Growth Reduction (%) 21 Days After Application TRZAS
[10] = ALOMY black-grass (Alopecurus myosuroides), 35 g ai/ha, read-out: Visual Growth Reduction (%) 21 Days After Application ALOMY
[11] = ALOMY black-grass (Alopecurus myosuroides), 70 g ai/ha, read-out: Visual Growth Reduction (%) 21 Days After Application ALOMY
[12] = ALOMY black-grass (Alopecurus myosuroides), 140 g ai/ha, read-out: Visual Growth Reduction (%) 21 Days After Application ALOMY
[13] = APESV bentgrass (Apera spica-venti), 35 g ai/ha, read-out: Visual Growth Reduction (%) 21 Days After Application APESV
[14] = APESV bentgrass (Apera spica-venti), 70 g ai/ha, read-out: Visual Growth Reduction (%) 21 Days After Application APESV
[15] = APESV bentgrass (Apera spica-venti), 140 g ai/ha, read-out: Visual Growth Reduction (%) 21 Days After Application APESV
[16] = LOLSS ryegrass, 35 g ai/ha, read-out: Visual Growth Reduction (%) 21 Days After Application LOLSS
[17] = LOLSS ryegrass, 70 g ai/ha, read-out: Visual Growth Reduction (%) 21 Days After Application LOLSS
[18] = LOLSS ryegrass, 140 g ai/ha, read-out: Visual Growth Reduction (%) 21 Days After Application LOLSS
[19] = SETVI green foxtail (Setaria viridis), 35 g ai/ha, read-out: Visual Growth Reduction (%) 21 Days After Application SETVI
[20] = SETVI green foxtail (Setaria viridis), 70 g ai/ha, read-out: Visual Growth Reduction (%) 21 Days After Application SETVI
[21] = SETVI green foxtail (Setaria viridis), 140 g ai/ha, read-out: Visual Growth Reduction (%) 21 Days After Application SETVI

| Compound | GR50 ALOMY [1] [g ai/ha] | GR80 ALOMY [1] [g ai/ha] | GR90 ALOMY [1] [g ai/ha] | GR50 APESV [2] [g ai/ha] | GR80 APESV [2] [g ai/ha] | GR90 APESV [2] [g ai/ha] | GR20 HORVS (HORVS barley, spring (crop)) [g ai/ha] | pest or weed control at 35 g/ha [3] [%] | pest or weed control at 70 g/ha [4] [%] | pest or weed control at 140 g/ha [5] [%] | Visual Growth Reduction (%) 21 Days After Application KCHSC (35 g ai/ha) | Visual Growth Reduction (%) 21 Days After Application KCHSC (70 g ai/ha) | Visual Growth Reduction (%) 21 Days After Application KCHSC (140 g ai/ha) | GR50 KCHSC [g ai/ha] | GR80 KCHSC [g ai/ha] | GR90 KCHSC [g ai/ha] | GR50 LOLSS (LOLSS ryegrass) [g ai/ha] | GR80 LOLSS (LOLSS ryegrass) [g ai/ha] | GR90 LOLSS (LOLSS ryegrass) [g ai/ha] | GR50 SETVI [6] [g ai/ha] | other results |
| --- | --- | --- | --- | --- | --- | --- | --- | --- | --- | --- | --- | --- | --- | --- | --- | --- | --- | --- | --- | --- | --- |
| Nc1cc(-c2cc3c(cc2F)OC(F)(F)O3)nc(C(=O)O)c1Cl [Compound 42] | 11 | 25 | 40 | 22 | 81 | >140 | 0.50 | 75 to 84 | 85 to 94 | 85 to 94 | E (45-59) | E (45-59) | D (60-74) | 54 | >140 | >140 | 44 | >140 | >140 | 10 | GR80 SETVI [6]: 46 g ai/ha; GR90 SETVI [6]: >140 g ai/ha; GR20 TRZAS (TRZAS wheat, spring (crop)): 0.20 g ai/ha; pest or weed control at 35 g/ha [7]: 75 to 84%; pest or weed control at 70 g/ha [8]: 75 to 84%; pest or weed control at 140 g/ha [9]: 85 to 94%; pest or weed control at 35 g/ha [10]: 85 to 94%; pest or weed control at 70 g/ha [11]: 95 to 100%; pest or weed control at 140 g/ha [12]: 95 to 100%; pest or weed control at 35 g/ha [13]: 60 to 74%; pest or weed control at 70 g/ha [14]: 75 to 84%; pest or weed control at 140 g/ha [15]: 85 to 94%; pest or weed control at 35 g/ha [16]: 45 to 59%; pest or weed control at 70 g/ha [17]: 60 to 74%; pest or weed control at 140 g/ha [18]: 60 to 74%; pest or weed control at 35 g/ha [19]: 75 to 84%; pest or weed control at 70 g/ha [20]: 85 to 94%; pest or weed control at 140 g/ha [21]: 95 to 100% |
| COC(=O)c1nc(-c2c(F)cc3c(c2F)OC(F)(F)O3)cc(N)c1Cl [Compound 46] | 18 | 35 | 49 | 88 | >140 | >140 | 8 | 45 to 59 | 60 to 74 | 85 to 94 | B (85-94) | A (95-100) | A (95-100) | 1 | 7 | 17 | 91 | >140 | >140 | 106 | GR80 SETVI [6]: >140 g ai/ha; GR90 SETVI [6]: >140 g ai/ha; GR20 TRZAS (TRZAS wheat, spring (crop)): 10 g ai/ha; pest or weed control at 35 g/ha [7]: 60 to 74%; pest or weed control at 70 g/ha [8]: 75 to 84%; pest or weed control at 140 g/ha [9]: 85 to 94%; pest or weed control at 35 g/ha [10]: 60 to 74%; pest or weed control at 70 g/ha [11]: 95 to 100%; pest or weed control at 140 g/ha [12]: 95 to 100%; pest or weed control at 35 g/ha [13]: 0 to 29%; pest or weed control at 70 g/ha [14]: 45 to 59%; pest or weed control at 140 g/ha [15]: 60 to 74%; pest or weed control at 35 g/ha [16]: 0 to 29%; pest or weed control at 70 g/ha [17]: 45 to 59%; pest or weed control at 140 g/ha [18]: 60 to 74%; pest or weed control at 35 g/ha [19]: 0 to 29%; pest or weed control at 70 g/ha [20]: 30 to 44%; pest or weed control at 140 g/ha [21]: 60 to 74% |
